Measured values from patent US20220332764A1, “T CELL EPITOPES OF HCMV AND USES OF THEREOF” (EBERHARD KARLS UNIVERSITÄT TÜBINGEN, priority 2019, published 2022).

System: PBMCs of healthy HCMV-seropositive donors
Assay: IFNγ ELISpot after 12 day stimulation (memory T-cell response)
Type: cell-based, human
Details: for % Positive donors (after 12 days of stimulation): IFNγ ELISpot, HLA-matched seropositive donors; for Positive donors as tested: positive / tested HLA-matched seropositive donors, positive: >10 spots/well and at least 3-fold negative control
Excerpt: PHA was used as positive control.

| Sequence | % Positive donors (after 12 days of stimulation) | Positive donors as tested |
| --- | --- | --- |
| AEPNFPKNVW (listed as Human cytomegalovirus) [SEQ ID NO: 46] | 14.3% | 2/14 |
| ALFNQLVFTA (listed as Human cytomegalovirus) [SEQ ID NO: 16] | 13.3% | 2/15 |
| ALLGRLYFI (listed as Human cytomegalovirus) [SEQ ID NO: 19] | 6.7% | 1/15 |
| ALSPSTSKV (listed as Human cytomegalovirus) [SEQ ID NO: 9] | 23.5% | 4/17 |
| ALYPEYIYTV (listed as Human cytomegalovirus) [SEQ ID NO: 14] | 16.7% | 3/18 |
| APFGRVSV (listed as Human cytomegalovirus) [SEQ ID NO: 35] | 20.0% | 3/15 |
| APNYRQVEL (listed as Human cytomegalovirus) [SEQ ID NO: 37] | 16.7% | 2/12 |
| APYLRDTL (listed as Human cytomegalovirus) [SEQ ID NO: 39] | 5.3% | 1/19 |
| DLDFGDLLKY (listed as Human cytomegalovirus) [SEQ ID NO: 65] | 12.5% | 2/16 |
| EEATALGREL (listed as Human cytomegalovirus) [SEQ ID NO: 47] | 10.0% | 1/10 |
| EEQDYRALL (listed as Human cytomegalovirus) [SEQ ID NO: 44] | 33.3% | 4/12 |
| FFPKLQGNY (listed as Human cytomegalovirus) [SEQ ID NO: 23] | 16.7% | 2/12 |
| FISSKHTL (listed as Human cytomegalovirus) [SEQ ID NO: 84] | 21.4% | 3/14 |
| FPAHDWPEV (listed as Human cytomegalovirus) [SEQ ID NO: 94] | 13.3% | 2/15 |
| FPDATVPATV (listed as Human cytomegalovirus) [SEQ ID NO: 96] | 6.7% | 1/15 |
| FTDNVRFSV (listed as Human cytomegalovirus) [SEQ ID NO: 17] | 7.8% | 1/13 |
| FVEGPGFMRY (listed as Human cytomegalovirus) [SEQ ID NO: 56] | 35.7% | 5/14 |
| GLDQYLESV (listed as Human cytomegalovirus) [SEQ ID NO: 18] | 7.8% | 1/13 |
| GLLAHIPAL (listed as Human cytomegalovirus) [SEQ ID NO: 13] |  | 2/11 |

| Sequence | % Positive donors (after 12 days of stimulation) | Positive donors as tested |
| --- | --- | --- |
| GLNERLLSV (listed as Human cytomegalovirus) [SEQ ID NO: 15] | 15.0% | 3/20 |
| GSDALPAGLY (listed as Human cytomegalovirus) [SEQ ID NO: 60] | 18.8% | 3/16 |
| GVSSVTLLK (listed as Human cytomegalovirus) [SEQ ID NO: 73] | 35.7% | 5/14 |
| HLKLRPATF (listed as Human cytomegalovirus) [SEQ ID NO: 83] | 23.1% | 3/13 |
| IAIPHFMVV (listed as Human cytomegalovirus) [SEQ ID NO: 91] | 33.3% | 5/15 |
| IPDYRSVSL (listed as Human cytomegalovirus) [SEQ ID NO: 34] | 22.2% | 4/18 |
| IPHNWFLQV (listed as Human cytomegalovirus) [SEQ ID NO: 92] | 33.3% | 5/15 |
| IPMTFVDRDSL (listed as Human cytomegalovirus) [SEQ ID NO: 30] | 35.7% | 5/14 |
| IPPPQIPFV (listed as Human cytomegalovirus) [SEQ ID NO: 90] | 40.0% | 6/15 |
| IPVERQAL (listed as Human cytomegalovirus) [SEQ ID NO: 36] | 16.7% | 2/12 |
| ISENGNLQVTY (listed as Human cytomegalovirus) [SEQ ID NO: 63] | 15.0% | 3/20 |
| KLGGALQAK (listed as Human cytomegalovirus) [SEQ ID NO: 70] | 40.0% | 6/15 |
| LENGVTHRF (listed as Human cytomegalovirus) [SEQ ID NO: 49] | 7.1% | 1/14 |
| LLDELGAVFGY (listed as Human cytomegalovirus) [SEQ ID NO: 62] | 15.4% | 2/13 |
| LPNDHHYAL (listed as Human cytomegalovirus) [SEQ ID NO: 38] | 5.9% | 1/17 |
| LPYLSAERTV (listed as Human cytomegalovirus) [SEQ ID NO: 97] | 6.7% | 1/15 |
| LYVGQFLAY (listed as Human cytomegalovirus) [SEQ ID NO: 21] | 25.0% | 3/12 |
| MLRLLFTL (listed as Human cytomegalovirus) [SEQ ID NO: 86] | 7.1% | 1/14 |
